Several values for one entry are separate records, joined by “and”; a condition that tells them apart may be missing. Equal values may be shown once. Read-outs that look alike come from different tables or passages of the source. Marks after values point to notes of the source that are not given here.
Assays:
α2B-adrenoceptor [1] = target: T1, α2B-adrenoceptor (Homo sapiens, UniProt P18089); conditions: read-out: α2B Ant IC50; cited from earlier work
T1 sequence (P18089 1-450): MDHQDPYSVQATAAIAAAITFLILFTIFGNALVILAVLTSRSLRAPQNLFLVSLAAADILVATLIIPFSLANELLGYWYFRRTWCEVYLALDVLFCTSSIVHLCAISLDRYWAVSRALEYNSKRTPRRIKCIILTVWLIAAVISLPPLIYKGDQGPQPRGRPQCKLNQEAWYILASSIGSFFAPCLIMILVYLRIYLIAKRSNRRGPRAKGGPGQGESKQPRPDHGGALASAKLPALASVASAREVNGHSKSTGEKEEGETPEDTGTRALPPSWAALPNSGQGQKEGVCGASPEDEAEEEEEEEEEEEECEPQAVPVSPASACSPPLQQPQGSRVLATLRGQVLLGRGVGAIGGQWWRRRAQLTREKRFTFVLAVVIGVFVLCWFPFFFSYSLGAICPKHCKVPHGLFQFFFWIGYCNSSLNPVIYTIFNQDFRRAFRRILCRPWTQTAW

human TAAR1 [2] = target: T2, human TAAR1 (Homo sapiens, UniProt Q96RJ0); conditions: at 10^−4 M; cited from earlier work
T2 sequence (Q96RJ0 1-339): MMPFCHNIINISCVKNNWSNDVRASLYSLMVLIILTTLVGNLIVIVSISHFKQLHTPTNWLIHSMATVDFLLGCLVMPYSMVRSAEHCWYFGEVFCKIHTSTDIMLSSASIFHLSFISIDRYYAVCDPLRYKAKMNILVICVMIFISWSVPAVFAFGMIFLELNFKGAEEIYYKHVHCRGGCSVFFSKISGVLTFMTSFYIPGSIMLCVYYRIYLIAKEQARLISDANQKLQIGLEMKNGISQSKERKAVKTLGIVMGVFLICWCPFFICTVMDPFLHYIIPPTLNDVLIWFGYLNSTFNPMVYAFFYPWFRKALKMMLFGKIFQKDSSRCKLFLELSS

α2A-adrenoceptor = target: T3, α2A-adrenoceptor (Homo sapiens, UniProt P08913); conditions: cited from earlier work
T3 sequence (P08913 1-465): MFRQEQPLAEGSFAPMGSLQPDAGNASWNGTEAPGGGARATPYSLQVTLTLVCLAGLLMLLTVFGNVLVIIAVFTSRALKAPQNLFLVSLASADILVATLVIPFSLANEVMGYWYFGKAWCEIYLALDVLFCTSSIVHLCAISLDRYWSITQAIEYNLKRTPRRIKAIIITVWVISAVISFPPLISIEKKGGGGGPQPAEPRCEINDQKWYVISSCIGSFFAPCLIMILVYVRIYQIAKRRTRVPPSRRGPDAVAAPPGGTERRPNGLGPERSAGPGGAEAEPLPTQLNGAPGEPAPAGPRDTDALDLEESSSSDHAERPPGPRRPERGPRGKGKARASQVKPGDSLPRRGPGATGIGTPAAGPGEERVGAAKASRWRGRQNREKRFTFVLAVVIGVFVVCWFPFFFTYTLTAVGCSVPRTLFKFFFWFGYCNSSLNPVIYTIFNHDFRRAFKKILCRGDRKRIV

[3] = rat, intraperitoneal administration; cited from earlier work
α2-adrenoceptor = assay: Competitive radioligand binding, [3H]clonidine, rat cerebral cortex; conditions: n.a. = no activity at 10–5 M
Description: The competitive radioligand-binding assay assessed affinity for α1- and α2-adrenoceptors. Experiments were carried out in the rat cerebral cortex. […] The membrane preparation and assay technique followed the previously reported protocol [10]. Radioactivity was measured using the MicroBeta2 scintillation counter (PerkinElmer, Kraków, Poland). The data was adjusted to match a single-site curve-fitting formula using Prism 8 (GraphPad Software, La Jolla, CA, USA), and the Ki values were estimated by means of the Cheng–Prusoff formula.

α2B-adrenoceptor [4] = target: T1, α2B-adrenoceptor; assay: α2B-adrenoceptor intrinsic activity, antagonist mode (AequoScreen); type: cell-based; conditions: n.a. = no activity at 10–5 M; read-out: α2B Ant IC50
Description: (§1) The determination of intrinsic activity will be performed in accordance with the manufacturer’s Aequoscreen methodology—Perkin Elmer.
(§2) The cell density in the 96-well format was 5000 cells per well. Cell preparation for the assay was performed according to the manufacturer’s instructions for AequoScreen (PerkinElmer, Waltham, MA, USA). […] The cells suspension was applied onto the ligands with the injectors of the POLARstar optima reader (BMG Labtech, Ortenberg, Germany). […] The concentration and dilution series having four replicates were prepared as instructed in the AequoScreen Starter Kit Manual (PerkinElmer, Waltham, MA, USA). The wells received cell injections along with either the standard agonist or the compounds being evaluated, while the POLARstar optima reader documented the emitted light over a duration of 20 s. In the antagonist evaluation, cells were administered (50 μL) into the assay plate alongside antagonist solutions (50 μL). A single concentration of agonist (oxymetazoline) was injected (50 μL, final concentration EC80) into the preincubated (15–20 min) plate with cells and antagonist, and the emitted light was recorded for 20 s.

[5] = target: T4, 5-HT2C serotoninergic receptor (Homo sapiens, UniProt P28335); assay: 5-HT2C intrinsic activity, antagonist mode (AequoScreen calcium mobilization); type: cell-based
T4 sequence (P28335 33-458): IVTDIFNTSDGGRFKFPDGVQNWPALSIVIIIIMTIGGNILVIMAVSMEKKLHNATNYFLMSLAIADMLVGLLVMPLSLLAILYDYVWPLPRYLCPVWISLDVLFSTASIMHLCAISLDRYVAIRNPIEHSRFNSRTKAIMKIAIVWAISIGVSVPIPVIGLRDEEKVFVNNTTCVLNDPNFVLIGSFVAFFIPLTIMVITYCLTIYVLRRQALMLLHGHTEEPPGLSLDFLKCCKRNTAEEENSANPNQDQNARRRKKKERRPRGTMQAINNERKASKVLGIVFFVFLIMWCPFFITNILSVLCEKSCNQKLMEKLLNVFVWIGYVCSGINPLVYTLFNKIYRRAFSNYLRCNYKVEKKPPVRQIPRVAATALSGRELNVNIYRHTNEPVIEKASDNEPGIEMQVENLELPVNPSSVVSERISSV
Description: as §1, §2

α1-adrenoceptor = assay: Competitive radioligand binding, [3H]prazosin, rat cerebral cortex; conditions: n.a. = no activity at 10–5 M
Description: The competitive radioligand-binding assay assessed affinity for α1- and α2-adrenoceptors. Experiments were carried out in the rat cerebral cortex. […] The membrane preparation and assay technique followed the previously reported protocol. Radioactivity was measured using the MicroBeta2 scintillation counter (PerkinElmer, Kraków, Poland). The data was adjusted to match a single-site curve-fitting formula using Prism 8 (GraphPad Software, La Jolla, CA, USA), and the Ki values were estimated by means of the Cheng–Prusoff formula.

human TAAR1 [6] = target: T2, human TAAR1; assay: TAAR1 agonist activity, Hit Hunter cAMP assay; type: cell-based
Description: The intrinsic activity of the TAAR1 receptor will be assessed according to the manufacturer’s protocol, using the Hit Hunter® cAMP assay by DiscoverX. This assay enables monitoring of GPCR activation in cells stably expressing TAAR1 by measuring changes in the level of the secondary messenger, cAMP. The cAMP Hunter cell lines were cultured from frozen stocks following standard procedures. Cells were plated in white-walled 384-well microplates at a total volume of 20 µL per well and incubated at 37 °C for the required period before analysis. To assess agonist activity, cells were exposed to the test compound to trigger a response. The culture medium was then removed and replaced with 15 µL of a 2:1 mixture of HBSS and 10 mM Hepes containing the cAMP XS+ antibody reagent. Sample stocks were diluted to prepare a 4× concentration in assay buffer. Subsequently, 5 µL of the 4× sample was added to each well, and the plates were incubated at either 37 °C or room temperature for 30 or 60 min. The vehicle was used at a concentration of 1%. After incubating the compounds for the required time, the assay signal was produced by adding 20 µL of the cAMP XS+ ED/CL lysis cocktail and incubating for one hour. This was followed by a three-hour incubation with 20 µL of the cAMP XS+EA reagent at room temperature. After signal development, the microplates were read using a PerkinElmer Envision Reader to detect chemiluminescence.

TAAR1 = conditions: cited from earlier work
[7] = test system: platelet aggregation in rat whole blood; assay: In vitro collagen-induced platelet aggregation in rat whole blood (impedance aggregometry); type: cell-based; conditions: collagen 1.6 µg/mL
Description: In vitro platelet aggregation assays were conducted using freshly collected whole blood from rats, utilizing the Multiplate platelet function analyzer (Roche Diagnostics, Mannheim, Germany)—a five-channel device that measures electrical impedance, following methods described previously. Upon stimulation, platelets adhere to and aggregate on dual metal sensors within the test cuvette, causing an increase in electrical resistance, which corresponds to the number of platelets attached to the electrodes.
Blood was collected from the carotid artery of the rat into tubes coated with hirudin (S-Monovette, Sarstedt, Germany). A volume of 300 μL of the anticoagulated blood was mixed with 300 μL of prewarmed isotonic saline that contained the test compound or a vehicle control (0.1% DMSO) and incubated at 37 °C for 3 min under continuous stirring. Aggregation was triggered by adding collagen (final concentration: 1.6 µg/mL). Platelet activity was monitored for 6 min. Multiplate V2.04 software calculated the area under the curve (AUC) for each measurement to determine average platelet response.

Danio rerio larvae [8] = assay: Nile red fluorescence fat metabolism assay in zebrafish larvae; type: in vivo; conditions: 20 µg/mL, 48 h incubation of larvae
Description: The study was conducted based on the method described earlier by Jones et al.. Starting at 3 days after fertilization (dpf), larvae were placed into 6-well plates and incubated with the test solutions (compounds in E3: JP-14 at a concentration of 10 μg/mL or resveratrol or E3 alone) for 48 h. Resveratrol solution (20 μg/mL) was used as the reference compound. After 24 h, the solutions were replaced with new ones containing Nile red dye (9-diethylamino-5H-benzo[α]phenoxazine-5-one, Pol-aura, Poland) at a concentration of 100 ng/mL. Nile red is a selective fluorescent lipid dye used to stain lipid droplets. Incubation with the dye was therefore 24 h. Stock solution of Nile red was prepared earlier by dissolving it in acetone to a concentration of 500 μg/mL. After the incubation period, the larvae were rinsed 3 times with 0.1 M phosphate-buffered, pH 7.4 (PBS, Sigma-Aldrich, Schnelldorf, Germany) and anesthetized with cold […] tricaine solution (Sigma-Aldrich, Schnelldorf, Germany). Next, they were visualized under a fluorescence microscope (Zeiss.Discovery.V8, Zeiss, Oberkochen, Germany) and analyzed with ImageJ FIJI program (version 2.17.0).

Danio rerio larvae [9] = assay: Fructose-induced lipid disturbance in zebrafish larvae (Oil Red O); type: in vivo; conditions: 20 µg/mL with 4% fructose, 24 h
Description: Zebrafish larvae 4 dpf were incubated for another 24 h with 4% fructose (final solution) in embryo medium to induce metabolic disorders. Tested solutions (compounds in E3: JP-14 at concentration of 20 μg/mL or resveratrol of 40 μg/mL) were added to fructose solution (8% in E3). The final concentration of JP-14 was 10 μg/mL or resveratrol of 20 μg/mL. The control group was incubated with E3 only. Incubation was carried out in a 6-well plate (10 larvae/well) to which 3 mL of liquid was added per well. Larvae were then collected, euthanized with tricaine, and transferred to 4% formaldehyde solution. After 24 h, larvae were washed 3 times with PBS (Sigma-Aldrich, Germany) and stained for neutral lipids, similar to previous studies. Larvae incubated for 1 h in a solution of 0.25% oil red O (ORO, Merck, Darmstadt, Germany) in 60% isopropanol (Merck, Germany). The samples were then rinsed three times with 60% isopropanol and washed 6 times with PBS, then imaged on a microscope (OPTA-TECH MN16, Warszawa, Poland) and analyzed with the ImageJ FIJI program. […] Next, the samples were centrifuged (10 min, 3000 rpm, MPW-260R, MPW Med Instruments, Warszawa, Poland), and the amount of dye in supernatant was determined spectrophotometrically (MuLTISKAN.GO, Thermo Fisher Scientific Inc. Waltham, MA, USA) at a wavelength of 495 nm.

4-OH-guanabenz
IC50 (α2B-adrenoceptor [1]): 330 nM
TAAR1 Ago Emax (max Ago) (human TAAR1 [2]): 34%/ (10^−4M) ^a
α2A-adrenoceptor activation (α2A-adrenoceptor; partial agonist): 30%
EC50 (α2A-adrenoceptor; read-out: α2A Ago EC50): 316 nM
highest (peak) level in brain [3]: 64.5 ng/g
tmax in brain [3]: 15 min

COc1ccc(F)c(/C=N/NC(=N)N)c1F [8 (JP10)]
Ki (α2-adrenoceptor): 232 ± 8.5 nM
IC50 (α2B-adrenoceptor [4]): 220 nM

CC[C@@H](CO)NC(=O)[C@@H]1C=C2c3cccc4c3c(cn4C)C[C@H]2N(C)C1 [MSE, methysergide]
EC50 [5]: 1.1 ± 0.1 nM

Cc1ccc(N(CC2=NCCN2)c2cccc(O)c2)cc1 [PHT, phentolamine]
Ki (α1-adrenoceptor): 10.9 ± 0.8 nM

N=C(N)N/N=C/c1c(Cl)cccc1Cl [guanabenz]
TAAR1 Ago Emax (human TAAR1 [6]; % of maximal response induced by the full agonist tyramine, listed as GNB): 60%
EC50 (human TAAR1 [6]; cAMP accumulation, n.a. = no activity at 10–5 M, read-out: TAAR1 Ago EC50): 300 nM and 301 nM
Emax (human TAAR1 [6]; read-out: TAAR1 Ago Emax, % of maximal response induced by the full agonist tyramine): 50%
EC50 (TAAR1): 8.5 nM
increase of collagen-induced platelet aggregation ([7]; 10 µM): 31.81%
increase of collagen-induced platelet aggregation ([7]; 100 µM): 22.73%
highest (peak) level in brain [3]: 183.2 ng/g
tmax in brain [3]: 60 min

Oc1ccc(/C=C/c2cc(O)cc(O)c2)cc1 [resveratrol]
Nile red detectable fat (Danio rerio larvae [8]): slightly stronger effect
fructose-induced yolk enlargement (Danio rerio larvae [9]): Comparable effects

Reference: article PMC12563652 (International Journal of Molecular Sciences, 2025)
